Like-named read-outs stand apart in the source and are kept apart here.
Columns and labels:
[1] = test system: Panzytrat® 40,000 (pancreatin)
Method: (§1) For the cleavage experiments under near-body conditions two media are investigated: • FaSSGF, which simulates the stomach • FaSSIF, which simulates the intestinal tract
(§2) In addition, in some experiments porcine pancreas is added (Panzytrat® 40,000, Fa. Allergan).
(§3) Cleavage with Gastric Medium: FaSSGF Medium • A so-called FaSSGF medium is prepared according to the manufacturer's specifications from the commercially available corresponding composition (available from Biorelevant, Ltd., Great Britain). • The resulting sample is divided into two batches of equal size. 10 wt.-% of the ternary glyceride mixture based on mono-, di- and triglycerides of 3-hydroxybutyric acid, as described hereinabove, is dissolved in each FaSSGF medium and left in a water bath at 35° C. for 24 hours.

[2] = test system: porcine pancreatic lipase type II (PPL type II)
Method: (§4) Further Cleavage with Bowl Medium: FaSSIF Medium • The FaSSIF medium is prepared according to the previous test according to the manufacturer's instructions. • The resulting sample is divided into two batches of equal size. 10 wt.-% of the ternary glyceride mixture of mono-, di- and triglycerides of 3-hydroxybutyric acids according to the invention is dissolved in each FaSSIF medium and left in a water bath at 35° C. for 24 hours.

[3] = test system: Panzytrat® 40,000 (pancreatin); remark: listed apart in the source
Method: as §1
(§5) Both media are from the company Biorelevant®, Ltd. in Great Britain. In addition, in some experiments porcine pancreas is added (Panzytrat® 40,000, Fa. Allergan).
(§6) Cleavage with Bowl Medium: FaSSIF Medium • The FaSSIF medium is prepared according to the manufacturer's instructions (Fa. Biorelevant, Ltd., Great Britain). • The sample obtained is divided into two equally sized preparations. 10 wt.-% of the aforementioned glyceride mixture based on a mixture of mono-, di- and triglycerides of 3-hydroxybutyric acids is dissolved in each FaSSIF medium and left in a water bath at 35° C. for 24 hours.

[4] = test system: Panzytrat® 40,000 (pancreatin); test: Cleavage experiments with and without Panzytrat 40,000 in FaSSGF medium (simulates the stomach, pH 1.6); conditions: for change of content in FaSSGF medium: pH 1.6, 35° C., 24 hours, both with and without pancreatin; for share in chromatogram, FaSSGF m.P. 24 h, 35° C. / share in chromatogram, FaSSGF o.P. 24 h, 35° C. / share in chromatogram, before splitting: the 11th table; for share in chromatogram, FaSSGF m.P. 24 h, 35° C. / share in chromatogram, FaSSGF o.P. 24 h, 35° C.: FaSSGF (stomach, pH = 1.6); for share in chromatogram, FaSSGF m.P. 24 h, 35° C.: with Panzytrat; for share in chromatogram, FaSSGF o.P. 24 h, 35° C.: without Panzytrat; for share in chromatogram, before splitting: starting mixture (crude high-boiling fraction) before splitting; for before splitting: the 12th table, FaSSGF medium
Method: as §1, §2, §3

[5] = test system: Panzytrat® 40,000 (pancreatin); test: Cleavage experiments with and without Panzytrat 40,000 in FaSSIF medium (simulates the intestinal tract, pH 6.5); conditions: for share in chromatogram, FaSSIF 0 h, Start / share in chromatogram, FaSSIF m.P. 24 h, 35° C. / share in chromatogram, FaSSIF o.P. 24 h, 35° C.: the 11th table, FaSSIF (bowel, pH = 6.5); for share in chromatogram, FaSSIF m.P. 24 h, 35° C.: with Panzytrat; for share in chromatogram, FaSSIF o.P. 24 h, 35° C.: without Panzytrat; for with Panzytrat 24 h, 35° C. / without Panzytrat 24 h, 35° C. / before splitting 0 h: the 13th table, in %; for with Panzytrat 24 h, 35° C.: FaSSIF medium pH 6.5, 1 wt.-% Panzytrat 40,000, 24 h; for without Panzytrat 24 h, 35° C.: FaSSIF medium pH 6.5, without Panzytrat; for before splitting 0 h: FaSSIF medium; for change of content in FaSSIF medium: pH 6.5, 35° C., 24 hours, with and without pancreatin
Method: as §1, §5, §6

[6] = test system: pancreatin (Panzytrat® 40,000); test: Cleavage experiments with pancreatin in water, acid number over time; format: in vitro ADME, porcine; conditions: test repeated on individual glycerides, 50° C.
[7] = test system: porcine pancreatic lipase type II (PPL type II); test: Cleavage experiments with and without porcine pancreatic lipase in FaSSIF medium; conditions: for with enzyme, 24 h, 35° C. / without enzyme 24 h, 35° C. / before splitting 0 h: the 14th table; for with enzyme, 24 h, 35° C.: FaSSIF medium pH 6.5, 1 wt.-% porcine pancreatic lipase type II; for without enzyme 24 h, 35° C.: FaSSIF medium pH 6.5, without enzyme; for before splitting 0 h: FaSSIF medium
Method: as §4

[8] = even if several grams are taken; acid and its salts; cited from earlier work

Compound | share in chromatogram, FaSSGF m.P. 24 h, 35° C. [4] [% area] | share in chromatogram, FaSSGF o.P. 24 h, 35° C. [4] [% area] | share in chromatogram, before splitting [4] [% area] | before splitting [4] [% area] | share in chromatogram, FaSSIF 0 h, Start [5] [% area] | share in chromatogram, FaSSIF m.P. 24 h, 35° C. [5] [% area] | share in chromatogram, FaSSIF o.P. 24 h, 35° C. [5] [% area] | with Panzytrat 24 h, 35° C. [5] | without Panzytrat 24 h, 35° C. [5] | before splitting 0 h [5] | cleavage of the individual glycerides by pancreatin [6] | with enzyme, 24 h, 35° C. [7] | without enzyme 24 h, 35° C. [7] | before splitting 0 h [7] | before splitting ([1]; 0 h) [% area] | share in chromatogram, before splitting ([1]; 0 h, 10 wt.-%, pH 1.6) [% area] | share in chromatogram, FaSSGF o.P. 24 h, 35° C. ([1]; 24 h, 10 wt.-%, pH 1.6) [% area] | share in chromatogram, FaSSGF m.P. 24 h, 35° C. ([1]; pig, 24 h, 10 wt.-%, pH 1.6) [% area] | before splitting 0 h ([2]; 0 h, 10 wt.-%, pH 6.5) [%] | without enzyme 24 h, 35° C. ([2]; 24 h, 10 wt.-%, pH 6.5) [%] | also measured
CC(O)CC(=O)OC(C)CC(=O)O (centres unmarked) [3-BHB dimer, dimer of 3-hydroxybutyrate] |  |  |  |  |  |  |  |  |  |  |  |  |  |  |  |  |  |  |  |  | before splitting [1]: 0.71 % area; share in chromatogram, FaSSGF m.P. 24 h, 35° C. [1]: 0.45 % area; share in chromatogram, FaSSGF o.P. 24 h, 35° C. [1]: 0.35 % area; share in chromatogram, before splitting [1]: 0.71 % area; before splitting 0 h [2]: 0.7%; with enzyme, 24 h, 35° C. ([2]; pH 6.5): 0.71%; without enzyme 24 h, 35° C. ([2]; pH 6.5): 0.72%; before splitting 0 h [3]: 0.70; share in chromatogram, FaSSIF 0 h, Start [3]: 0.70 % area; share in chromatogram, FaSSIF m.P. 24 h, 35° C. [3]: 0.72 % area; share in chromatogram, FaSSIF o.P. 24 h, 35° C. [3]: 0.72 % area; with Panzytrat 24 h, 35° C. ([3]; pH 6.5): 0.72; without Panzytrat 24 h, 35° C. ([3]; pH 6.5): 0.72
CC(O)CC(=O)OCC(CO)OC(=O)CC(C)O (centres unmarked) [3-BHB-DG, diglyceride of 3-hydroxybutyric acid] | 44.09 | 37.01 | 55.85 | 55.85 | 60.17 | 61.38 | 60.93 | 61.38 | 60.93 | 60.17 | cleaved by pancreatin to the free 3-hydroxybutyric acid | 59.84 | 60.93 | 60.17 |  |  |  |  |  |  | change of content in FaSSGF medium [4]: significant decrease
CC(O)CC(=O)O (centres unmarked) [3-BHB-FS, 3-hydroxybutyric acid] |  |  |  |  | 0.04 | 2.60 | 0.02 | 2.60 | 0.02 | 0.04 |  |  |  |  | 0.43 | 0.43 | 26.21 | 18.85 | 0.04 | 0.02 | duration of ketosis [8]: about three to four; change of content in FaSSGF medium ([1]; pH 1.6): strong increase; conversion or cleavage, free acid formed ([5]; FaSSIF conditions using Panzytrat): 2.6%; change of content in FaSSIF medium [5]: slight increase; change of content in FaSSIF medium with porcine pancreatic lipase ([2]; pH 6.5): slight increase; with enzyme, 24 h, 35° C. ([2]; pig, 24 h, 10 wt.-%, pH 6.5): 1.79%
CC(O)CC(=O)OCC(O)CO (centres unmarked) [3-BHB-MG, monoglyceride of 3-hydroxybutyric acid] | 18.41 | 21.09 | 18.28 | 18.28 | 13.52 | 14.34 | 12.26 | 14.34 | 12.26 | 13.52 | cleaved by pancreatin to the free 3-hydroxybutyric acid | 15.98 | 12.26 | 13.52 |  |  |  |  |  |  | 
CC(O)CC(=O)OCC(COC(=O)CC(C)O)OC(=O)CC(C)O (centres unmarked) [3-BHB-TG, triglyceride of 3-hydroxybutyric acid] | 10.12 | 7.55 | 16.08 | 16.08 | 16.40 | 12.83 | 16.79 | 12.83 | 16.79 | 16.40 | cleaved by pancreatin to the free 3-hydroxybutyric acid | 13.38 | 16.79 | 16.40 |  |  |  |  |  |  | change of content in FaSSGF medium [4]: significant decrease; change of content in FaSSIF medium [5]: slight decrease; change of content in FaSSIF medium with porcine pancreatic lipase ([7]; FaSSIF, pH 6.5, 35° C., 24 hours, 1 wt.-% PPL type II): slight decrease
CC(O)CC(=O)OC(C)CC(=O)OCC(CO)OC(=O)CC(C)O (centres unmarked) [3-BHB-dimer-DG, diglyceride of the dimer of 3-hydroxybutyric acid] | 4.22 | 3.14 | 6.62 | 6.62 | 7.56 | 7.02 | 7.61 | 7.02 | 7.61 | 7.56 |  | 7.07 | 7.61 | 7.56 |  |  |  |  |  |  | 
CC(O)CC(=O)OC(C)CC(=O)O (centres unmarked) [3-BHB-dimer-FS, dimer of 3-hydroxybutyric acid] | 2.51 | 3.25 |  |  |  | 0.17 |  | 0.17 | 0.00 | 0.00 |  | 0.17 | 0.00 | 0.00 |  |  |  |  |  |  | 
CC(O)CC(=O)OC(C)CC(=O)OCC(O)CO (centres unmarked) [3-BHB-dimer-MG, monoglyceride of the dimer of 3-hydroxybutyric acid] | 0.22 | 0.16 | 0.39 | 0.39 | 0.42 |  | 0.44 | 0.00 | 0.44 | 0.42 |  | 0.16 | 0.44 | 0.42 |  |  |  |  |  |  | 
CCOC(=O)CC(C)O (centres unmarked) [3-BHB-ethyl, 3-hydroxybutyric acid ethyl ester] |  |  |  |  | 0.16 | 0.20 | 0.18 | 0.20 | 0.18 | 0.16 |  |  |  |  | 0.31 | 0.31 | 0.07 | 0.11 | 0.16 | 0.18 | with enzyme, 24 h, 35° C. ([2]; pig, 24 h, 10 wt.-%, pH 6.5): 0.12%
OCC(O)CO [glycerol] |  |  |  |  | 0.07 | 0.07 | 0.05 | 0.07 | 0.05 | 0.07 |  |  |  |  | 0.38 | 0.38 | 0.81 | 0.51 | 0.07 | 0.05 | with enzyme, 24 h, 35° C. ([2]; pig, 24 h, 10 wt.-%, pH 6.5): 0.08%

Reference: patent publication US12258609B2, “Method for producing glycerides of hydroxycarboxylic acids” (KetoLipix Therapeutics GmbH, priority 2019, dated 2025)
